The test system of the experiment is BCR-FMS BaF3 cells. The experiment can be described thus: Splenomegaly mouse model, BCR-FMS BaF3 cells. The conditions noted are these: dosed once per day at 10 mg per kg. Format: in vivo. A digest of the protocol:
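Female nu/nu mice given 5×10^6 engineered BaF3 cells i.v. on day 1; compound in 1.0% Polysorbate 80/0.5% HPMC/2.5% DMSO dosed orally once (sometimes twice) daily, days 10-18. Spleens weighed 4 h after final dose; % spleen growth inhibition calculated versus vehicle control.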

One compound from patent US8901118B2, “Compounds and methods for kinase modulation, and indications therefor” (Plexxikon Inc., priority 2010, dated 2014) can be followed below.

Turning to `O=C(c1cnc(NC2CCC(F)(F)CC2)c(F)c1)c1c[nH]c2ncnc(NC3CC3)c12` [Compound P-4053, [4-(cyclopropylamino)-7H-pyrrolo[2,3-d]pyrimidin-5-yl]-[6-[(4,4-difluorocyclohexyl)amino]-5-fluoro-3-pyridyl]methanone], the “% spleen growth inhibition, Fms” value is listed as 69%.
